How the values were obtained:
[1] = target: T1, Histone-lysine N-methyltransferase EHMT2 (Homo sapiens, UniProt Q96KQ7); experiment: Inhibition of G9a (unknown origin) using H3 as peptide substrate measured after 20 mins by fluorescence based analysis
T1 sequence (Q96KQ7 whole entry): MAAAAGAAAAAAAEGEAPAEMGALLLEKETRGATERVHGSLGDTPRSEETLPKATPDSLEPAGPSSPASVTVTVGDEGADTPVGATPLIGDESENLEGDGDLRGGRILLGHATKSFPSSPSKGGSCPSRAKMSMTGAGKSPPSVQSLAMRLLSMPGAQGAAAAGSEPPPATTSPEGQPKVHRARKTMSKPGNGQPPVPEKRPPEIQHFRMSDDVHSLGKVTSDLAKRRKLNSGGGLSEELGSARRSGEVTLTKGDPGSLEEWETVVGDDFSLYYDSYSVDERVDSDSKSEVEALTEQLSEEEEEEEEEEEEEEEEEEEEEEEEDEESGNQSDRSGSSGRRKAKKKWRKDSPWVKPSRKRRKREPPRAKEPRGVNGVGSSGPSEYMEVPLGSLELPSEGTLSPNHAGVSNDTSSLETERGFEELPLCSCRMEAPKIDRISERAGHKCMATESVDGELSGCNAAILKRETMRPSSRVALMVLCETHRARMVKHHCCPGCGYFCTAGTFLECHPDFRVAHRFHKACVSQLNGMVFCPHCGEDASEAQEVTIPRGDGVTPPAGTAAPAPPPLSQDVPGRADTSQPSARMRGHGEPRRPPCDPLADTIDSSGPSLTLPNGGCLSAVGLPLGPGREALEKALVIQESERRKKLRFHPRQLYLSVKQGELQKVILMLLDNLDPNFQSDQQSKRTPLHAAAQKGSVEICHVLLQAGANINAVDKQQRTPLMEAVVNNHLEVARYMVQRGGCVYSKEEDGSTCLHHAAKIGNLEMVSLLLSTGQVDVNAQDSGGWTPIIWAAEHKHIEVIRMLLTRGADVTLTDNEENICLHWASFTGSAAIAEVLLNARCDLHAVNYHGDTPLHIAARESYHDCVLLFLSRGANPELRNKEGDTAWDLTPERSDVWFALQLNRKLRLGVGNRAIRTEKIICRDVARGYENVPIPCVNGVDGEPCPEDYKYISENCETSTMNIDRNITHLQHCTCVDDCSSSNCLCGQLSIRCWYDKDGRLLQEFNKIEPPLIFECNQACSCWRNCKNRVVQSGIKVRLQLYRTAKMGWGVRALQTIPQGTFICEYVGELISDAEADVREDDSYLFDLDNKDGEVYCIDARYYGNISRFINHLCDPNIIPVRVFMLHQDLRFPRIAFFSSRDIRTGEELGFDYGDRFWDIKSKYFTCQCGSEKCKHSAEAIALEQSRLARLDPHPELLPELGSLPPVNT

MCF7 [2] = experiment: Cytotoxicity against human MCF7 cells; assay type: functional, cell-based
[3] = target: T1, Histone-lysine N-methyltransferase EHMT2; experiment: Inhibition of G9a (unknown origin)
hERG (KCNH2) = hERG (KCNH2) (Homo sapiens, UniProt Q12809); experiment: Inhibition of hERG at 30 uM relative to control; assay type: toxicity
hERG (KCNH2), sequence (Q12809 whole entry): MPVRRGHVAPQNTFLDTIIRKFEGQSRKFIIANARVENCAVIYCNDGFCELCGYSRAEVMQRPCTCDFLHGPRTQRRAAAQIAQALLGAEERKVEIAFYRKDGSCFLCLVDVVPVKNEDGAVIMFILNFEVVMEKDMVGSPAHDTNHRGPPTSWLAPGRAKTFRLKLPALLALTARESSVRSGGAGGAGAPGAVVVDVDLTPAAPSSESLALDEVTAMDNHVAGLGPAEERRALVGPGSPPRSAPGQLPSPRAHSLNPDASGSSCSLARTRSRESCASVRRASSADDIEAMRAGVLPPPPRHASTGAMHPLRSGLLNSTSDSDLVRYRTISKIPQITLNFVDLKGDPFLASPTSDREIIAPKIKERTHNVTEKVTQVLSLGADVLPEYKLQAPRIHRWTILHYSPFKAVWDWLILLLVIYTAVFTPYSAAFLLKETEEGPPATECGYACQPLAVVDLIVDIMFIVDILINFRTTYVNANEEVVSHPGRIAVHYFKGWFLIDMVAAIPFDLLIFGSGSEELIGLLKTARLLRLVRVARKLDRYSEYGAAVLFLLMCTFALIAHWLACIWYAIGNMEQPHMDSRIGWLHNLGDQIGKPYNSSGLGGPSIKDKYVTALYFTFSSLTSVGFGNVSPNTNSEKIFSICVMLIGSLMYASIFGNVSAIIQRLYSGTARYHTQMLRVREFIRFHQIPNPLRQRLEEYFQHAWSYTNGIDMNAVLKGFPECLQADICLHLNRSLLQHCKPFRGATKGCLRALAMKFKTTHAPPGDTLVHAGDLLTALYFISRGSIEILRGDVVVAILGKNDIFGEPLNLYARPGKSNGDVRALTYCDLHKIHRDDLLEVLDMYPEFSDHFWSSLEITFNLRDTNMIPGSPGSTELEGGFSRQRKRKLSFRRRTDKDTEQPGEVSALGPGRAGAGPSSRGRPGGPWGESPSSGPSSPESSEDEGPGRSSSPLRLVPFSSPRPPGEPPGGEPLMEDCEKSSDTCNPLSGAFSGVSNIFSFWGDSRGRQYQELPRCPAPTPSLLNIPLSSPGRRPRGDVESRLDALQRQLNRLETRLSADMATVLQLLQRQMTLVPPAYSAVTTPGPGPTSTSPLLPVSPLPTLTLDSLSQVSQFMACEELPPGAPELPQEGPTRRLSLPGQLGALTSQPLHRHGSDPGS

[4] = Antiproliferative activity against human WSU-FSCCL cells assessed as reduction in cell viability; assay type: functional, cell-based
[5] = Antiproliferative activity against human WILL-1 cells assessed as reduction in cell viability; assay type: functional, cell-based
DOHH-2 = experiment: Antiproliferative activity against human DOHH-2 cells assessed as reduction in cell viability; assay type: functional, cell-based
[6] = Antiproliferative activity against human SC1 cells assessed as reduction in cell viability; assay type: functional, cell-based; conditions: SC-1
DB = experiment: Antiproliferative activity against human DB cells assessed as reduction in cell viability; assay type: functional, cell-based
SU-DHL-8 = experiment: Antiproliferative activity against human SU-DHL-8 cells assessed as reduction in cell viability; assay type: functional, cell-based
MCF7 [7] = experiment: Antiproliferative activity against human MCF7 cells assessed as reduction in cell viability by sulforhodamine B assay; assay type: functional, cell-based
T47D = experiment: Antiproliferative activity against human T47D cells assessed as reduction in cell viability by sulforhodamine B assay; assay type: functional, cell-based
SK-BR-3 = experiment: Antiproliferative activity against human SK-BR-3 cells assessed as reduction in cell viability by sulforhodamine B assay; assay type: functional, cell-based
[8] = target: T2, Histone-lysine N-methyltransferase EHMT1 (Homo sapiens, UniProt Q9H9B1); experiment: Inhibition of GLP (unknown origin)
T2 sequence (Q9H9B1 whole entry): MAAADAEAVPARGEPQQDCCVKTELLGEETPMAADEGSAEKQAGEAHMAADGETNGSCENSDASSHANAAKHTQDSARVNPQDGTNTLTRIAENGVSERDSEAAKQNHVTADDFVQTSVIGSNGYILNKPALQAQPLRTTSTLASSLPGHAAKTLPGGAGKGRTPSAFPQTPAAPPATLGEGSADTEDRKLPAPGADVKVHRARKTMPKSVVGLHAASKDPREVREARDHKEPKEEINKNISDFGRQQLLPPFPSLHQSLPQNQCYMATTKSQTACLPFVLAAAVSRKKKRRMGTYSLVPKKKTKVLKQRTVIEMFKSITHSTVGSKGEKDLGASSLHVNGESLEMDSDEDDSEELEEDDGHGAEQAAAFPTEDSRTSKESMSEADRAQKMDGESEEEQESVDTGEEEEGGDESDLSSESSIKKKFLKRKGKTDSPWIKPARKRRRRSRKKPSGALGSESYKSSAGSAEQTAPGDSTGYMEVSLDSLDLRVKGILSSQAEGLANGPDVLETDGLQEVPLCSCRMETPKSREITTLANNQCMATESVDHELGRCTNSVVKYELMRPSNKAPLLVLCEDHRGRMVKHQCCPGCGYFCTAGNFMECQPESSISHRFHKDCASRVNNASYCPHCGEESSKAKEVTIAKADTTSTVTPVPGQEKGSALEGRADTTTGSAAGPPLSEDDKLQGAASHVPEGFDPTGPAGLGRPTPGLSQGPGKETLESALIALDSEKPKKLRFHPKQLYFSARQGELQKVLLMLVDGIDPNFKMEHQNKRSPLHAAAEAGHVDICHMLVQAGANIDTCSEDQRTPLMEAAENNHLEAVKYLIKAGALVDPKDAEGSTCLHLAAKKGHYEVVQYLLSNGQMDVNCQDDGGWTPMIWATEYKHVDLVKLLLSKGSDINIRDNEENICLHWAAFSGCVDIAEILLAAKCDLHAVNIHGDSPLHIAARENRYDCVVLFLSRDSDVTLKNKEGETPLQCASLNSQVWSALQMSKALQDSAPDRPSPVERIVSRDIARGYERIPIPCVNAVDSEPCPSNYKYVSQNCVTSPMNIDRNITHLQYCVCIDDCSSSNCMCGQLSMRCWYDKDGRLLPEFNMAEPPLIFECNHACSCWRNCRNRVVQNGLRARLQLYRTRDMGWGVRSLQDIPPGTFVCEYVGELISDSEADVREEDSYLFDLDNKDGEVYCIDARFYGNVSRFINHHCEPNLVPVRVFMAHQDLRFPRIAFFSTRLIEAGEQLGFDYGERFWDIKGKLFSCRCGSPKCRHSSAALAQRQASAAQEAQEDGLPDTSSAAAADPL

[9] = Cmax in mouse at 10 mg/kg, po; assay type: ADME, organism-based; conditions: in vivo
[10] = Microsomal stability in human liver microsomes assessed as half life measured for incubated upto 60 mins by LC-MS/MS analysis; assay type: ADME, Microsome
[11] = Microsomal stability in mouse liver microsomes assessed as half life incubated upto 60 mins by LC-MS/MS analysis; assay type: ADME, Microsome
[12] = Half life in Balb/c mouse at 3 mg/kg, iv; assay type: ADME, organism-based; conditions: in vivo
[13] = target: T2, Histone-lysine N-methyltransferase EHMT1; experiment: Inhibition of GLP (unknown origin) measured after 20 mins by fluorescence based analysis
[14] = target: T1, Histone-lysine N-methyltransferase EHMT2; experiment: Binding affinity to G9a (unknown origin) assessed as inhibition constant
[15] = target: T2, Histone-lysine N-methyltransferase EHMT1; experiment: Binding affinity to GLP (unknown origin) assessed as inhibition constant

SMILES: CNc1cc(C)nc(Nc2ccc(OC)c(C3=CCNCCC3)c2)n1
- IC50 [1]: 32.3 nM

SMILES: COc1cc2c(NC3CCN(C(C)C)CC3)nc(C3CCCCC3)nc2cc1OCCCN1CCCC1
- EC50 (MCF7 [2]): 7600 nM

SMILES: CN1C(=O)[C@]23C[C@]4([C@]56C[C@]78SS[C@](CO)(C(=O)N7[C@H]5Nc5ccccc56)N(C)C8=O)c5ccccc5N[C@@H]4N2C(=O)[C@@]1(CO)SS3
- IC50 [3]: 1700 nM

SMILES: COc1cc2c(cc1C1=CCN(C)CCC1)N=C(N)C21CCC1
- inhibition at 30 µM (hERG (KCNH2)): 1%
- IC50 [1]: 75.7 nM

SMILES: CCN(c1cc(-c2ccc(CN3CCOCC3)cc2)cc(C(=O)NCc2c(C)cc(C)[nH]c2=O)c1C)C1CCOCC1 [TAZEMETOSTAT]
- IC50 [3]: 15 nM

SMILES: COc1cc2nc(N3CCN(C)CC3)nc(NC3CCN(Cc4ccccc4)CC3)c2cc1OC
- IC50 [4]: 3400 nM
- IC50 [5]: 5600 nM
- IC50 (DOHH-2): 3300 nM
- IC50 [6]: 3700 nM
- IC50 (DB): < 1000 nM
- IC50 (SU-DHL-8): < 1000 nM
- IC50 (MCF7 [7]): 7700 nM
- IC50 (T47D): 8500 nM
- IC50 (SK-BR-3): 7700 nM

SMILES: Cc1c(C(=O)N[C@@H](CCC2CC2)C(=O)Nc2ccc(C#N)cc2)[nH]c2c1C(=O)CC(C)(C)C2
- IC50 [8]: 53 nM
- Cmax [9]: 42.4 µM

SMILES: COc1cc2c(N(C)C3CCN(C(C)C)CC3)nc(C3CCCCC3)nc2cc1OCCCN1CCCC1
- IC50 [3]: 5 nM
- IC50 [8]: > 10 nM

SMILES: COc1cc2c(NC3CCN(C)CC3)cc(-c3ccc(C)o3)nc2cc1OCCCN1CCCC1
- IC50 [8]: 8 nM
- half-life [10]: > 2.4 h
- half-life [11]: 0.1 h
- half-life [12]: 10.4 h

SMILES: COc1cc2c(cc1C1=CCNCCC1)N=C(N)C21CCC1
- IC50 [13]: 33.9 nM
- inhibition at 30 µM (hERG (KCNH2)): 5%
- IC50 [1]: 33.9 nM

SMILES: CN1C(=O)C2C[C@]3([C@]45CC6C(=O)N(C)[C@H](CO)C(=O)N6[C@H]4Nc4ccccc45)c4ccccc4N[C@@H]3N2C(=O)[C@H]1CO (some centres not stated)
- IC50 [3]: > 50000 nM

SMILES: COc1cc2c(NC3CCN(C(C)C)CC3)nc(N3CCOCC3)nc2cc1OCCCN1CCCC1
- IC50 [8]: < 2.5 nM

SMILES: COc1cc2c(NC3CCN(C)CC3)nc(N3CCCN(C)CC3)nc2cc1OCCOCCN(C)C
- IC50 [3]: < 15 nM
- Ki [14]: 9 nM
- Ki [15]: 15 nM

SMILES: COc1cc2c(NC3CCN(C4CC4)CC3)cc(-c3ccc(C)o3)nc2cc1OCCCN1CCCC1
- IC50 [8]: 22 nM
- half-life [10]: > 2.4 h
- half-life [11]: 0.6 h
- half-life [12]: 24.2 h

SMILES: CN1C(=O)C2C[C@]3([C@]45CC6C(=O)N(C)[C@@H](CO)C(=O)N6[C@H]4Nc4ccccc45)c4ccccc4N[C@@H]3N2C(=O)[C@@H]1CO (some centres not stated)
- IC50 [3]: > 50000 nM

SMILES: COc1cc2c(NC3CCN(C(C)C)CC3)cc(C3CCCCC3)nc2cc1OCCCN1CCCC1
- IC50 [8]: 0.7 nM

Source: ChEMBL document CHEMBL6087477, “G9a/GLP Modulators: Inhibitors to Degraders” (J Med Chem, 2025)
